The assay concerns Salmonella enterica serotype Enteritidis. The assay can be described thus: Spot-on-lawn antimicrobial activity assay. Format: cell-based. To be noted: spot-on-lawn on M63 soft agar, 37 °C overnight; dried maturation assay in MeOH (41.7 µM if full conversion, 5 µL; Tyr9 derivatives also 69.5 µM, 8 µL); halo diameters. The procedure: We next evaluated all lasso peptides and their corresponding branched-cyclic peptides for antimicrobial activity in spot-on-lawn assays against Salmonella enterica serotype Enteritidis.[42] […] Moreover, steric constraints in the tight binding pocket are a limiting factor for Tyr-9 substitutions.
4.3 Antimicrobial activity assay against Salmonella strain
The antimicrobial activity assay of MccJ25-derivatives was performed against the indicative strain Salmonella enterica serotype Enteritidis.
4.3.1 Preparation of M63 agar
For M63 agar plates (20 g agar/L): KH2PO4 (3 g/L), K2HPO4 (7 g/L), (NH4)2SO4 (2 g/L), Casamino acids (1 g/L) were dissolved in 900 mL water. Agar (20 g/L) was added, and the suspension was filled up to 1 L and autoclaved (121 °C for 20 min). […]
The indicative strain is freshly streaked on a LB agar plate and incubated at 37 °C overnight. […] The plates were inspected for bacterial growth and possible halos were measured. […]
Fig. S77: Antimicrobial activity test using spot-on-lawn assays with dried m aturation assay dissolved in 30 µL MeOH: (A) Peptides analyzed after maturation assay. (B) Photos of spot -on-lawn assays and measured halo diameters to evaluate trends in activity. The peptide with three D-amino acids was analyzed on a different date, ther efore, diameter of control C (MccJ25) . […]

Where no end group is shown, it is not given here.

Consider “9′: His-12 MccJ25 mutant (His-12, Phe-13, Ile-15), L-His (GGAGHVPEYFVHFGIPISFYG; ends and bridges not checked; also: lasso peptide: isopeptide ring closure, ring positions not given here; UniProt Q9X2V7 38-58, looked up, variant G12H I13F T15I)”, for which the “antimicrobial activity of enzymatically matured lasso peptides (in words)” value is recorded as “slightly stronger activity”.
Consider “microcin J25 (GGAGHVPEYFVGIGTPISFYG; lactam (positions not given here); also: lasso peptide: isopeptide ring closure, ring positions not given here; UniProt Q9X2V7 38-58, looked up) [1′, native lasso peptide (21 AA), matured from WT-McjA, reference compound]”, for which the “antimicrobial activity of enzymatically matured lasso peptides (in words)” value is given as “activities were only observed”.
